# Measurements taken from patent US20050208496A1, “Methods of testing for bronchial asthma or chronic obstructive pulmonary disease” (Genox Research, Inc., priority 2002, published 2005).
# Read-outs that look alike come from different tables or passages of the source.
# System: respiratory epithelial cells
# [1] = IL-13 vs no stimulation, lot 2 Day 3 AI
# [2] = IL-13 vs no stimulation, lot 2 Day 7 AI
substance,measurement,setting,value
"IL-13: human IL-13 (Peprotech, Inc.) added to the medium at 50 ng/mL to stimulate respiratory epithelial cells",IGFBP6 (1736_at) expression change,[1],−4.7
same,LOH11CR2A (38151_at) expression change,[1],−3.2
same,MMP9 (31859_at) expression change,[1],−18
same,MMP10 (1006_at) expression change,[1],−30.3
same,MSMB (32149_at) expression change,[1],−21.3
same,NDRG1 (36933_at) expression change,[1],−2.9
same,NOTCH3 (38750_at) expression change,[1],−4.5
same,PFTK1 (36502_at) expression change,[1],−2.3
same,PSCA (33792_at) expression change,[1],−4.9
same,PTK2B (33804_at) expression change,[1],−3.7
same,PTPRZ1 (1364_at) expression change,[1],−4.3
same,RARRES1 (1042_at) expression change,[1],−3.1
same,RARRES1 (33505_at) expression change,[1],−3.5
same,RDC1 (34288_at) expression change,[1],−3.7
same,RTP801 (39827_at) expression change,[1],−2.3
same,S100A8 (41096_at) expression change,[1],−3
same,SEC14L2 (32817_at) expression change,[1],−6.9
same,SERPINA3 (33825_at) expression change,[1],−7
same,SERPINE1 (672_at) expression change,[1],−62.1
same,SERPINE1 (38125_at) expression change,[1],−11.2
same,STK39 (39120_at) expression change,[1],−2.6
same,TSPAN-5 (40990_at) expression change,[1],−3.2
same,VRP (38223_at) expression change,[1],−2
same,c-fos (1915_s_at) expression change,[1],−2
same,c-fos (1916_s_at) expression change,[1],−3.1
same,AGR2 (38827_at) expression change,[2],−3.7
same,AKR1B10 (37482_at) expression change,[2],−9.7
same,AKR1C3 (37399_at) expression change,[2],−2.8
same,ANXA10 (32349_at) expression change,[2],−18.9
same,APM2 (32527_at) expression change,[2],−3.3
same,BCAS1 (37821_at) expression change,[2],−13.2
same,BDKRB2 (39310_at) expression change,[2],−4.2
same,BENE (33331_at) expression change,[2],−8.5
same,C4.4A (41641_at) expression change,[2],−6.8
same,CRA (1230_g_at) expression change,[2],−3
same,CTSL2 (40717_at) expression change,[2],−5.6
same,DEFB2 (32464_at) expression change,[2],−2.6
same,ECM1 (37600_at) expression change,[2],−11
same,EPHA1 (1108_s_at) expression change,[2],−3.6
same,ETFB (36881_at) expression change,[2],−3.4
same,FABP5 (39799_at) expression change,[2],−3
same,GABRE (34280_at) expression change,[2],−3.2
same,HLA-DPB1 (38095_i_at) expression change,[2],−2.5
same,HLA-DPB1 (38096_f_at) expression change,[2],−3.3
same,IGFBP6 (1736_at) expression change,[2],−7.2
same,IMPA2 (36496_at) expression change,[2],−2.7
same,MMP9 (31859_at) expression change,[2],−113.5
same,MMP10 (1006_at) expression change,[2],−35.2
same,MN1 (37283_at) expression change,[2],−7.3
same,MSMB (32149_at) expression change,[2],−8.1
same,NCALD (38803_at) expression change,[2],−4.2
same,NOTCH3 (38750_at) expression change,[2],−3.5
same,PFTK1 (36502_at) expression change,[2],−3.5
same,PSCA (33792_at) expression change,[2],−9.2
same,PTK2B (33804_at) expression change,[2],−3.5
same,PTPRZ1 (1364_at) expression change,[2],−14.9
same,RARRES1 (1042_at) expression change,[2],−2.4
same,RARRES1 (33505_at) expression change,[2],−3.4
same,RDC1 (34288_at) expression change,[2],−3
same,RTP801 (39827_at) expression change,[2],−2.4
same,S100A8 (41096_at) expression change,[2],−6.1
same,SERPINA3 (33825_at) expression change,[2],−9.3
same,SERPINB1 (33305_at) expression change,[2],−2.9
same,SERPINB5 (862_at) expression change,[2],−2.2
same,SERPINE1 (672_at) expression change,[2],−34.4
same,SERPINE1 (38125_at) expression change,[2],−11
same,STK39 (39120_at) expression change,[2],−2.3
same,TSPAN-5 (40990_at) expression change,[2],−6
same,VRP (38223_at) expression change,[2],−2.4
same,c-fos (1915_s_at) expression change,[2],−2.3
same,c-fos (1916_s_at) expression change,[2],−3.6
same,"pendrin gene expression level, factor of increase in response to IL-13 stimulation","IMM method, day 3 and day 7, both Lots 1 and 2",≥ 20
same,"pendrin gene (36376_at, AF030880) expression fold change upon IL-13 stimulation, HG-U95A chip","Lot 2, Day 3, AI",118.3
same,"pendrin gene (36376_at, AF030880) expression fold change upon IL-13 stimulation, HG-U95A chip","Lot 2, Day 7, AI",58.2
same,AA149682 (51925_at) expression fold change,"lot 1, Day 3, AI method",2.9 fold
same,AA420479 (52539_at) expression fold change,"lot 1, Day 3, AI method",3.8 fold
same,AA541787 (52622_at) expression fold change,"lot 1, Day 3, AI method",3.3 fold
same,AA582926 (52307_at) expression fold change,"lot 1, Day 3, AI method",2.4 fold
same,"ACP5 (677_s_at) expression, fold change upon IL-13 stimulation","lot 1, Day 3, AI method",−2.8 fold
same,"ADAM8 (40712_at) expression, fold change upon IL-13 stimulation","lot 1, Day 3, AI method",5.8 fold
same,"ADAM28 (35479_at) expression, fold change upon IL-13 stimulation","lot 1, Day 3, AI method",9 fold
same,AI310524 (47087_at) expression fold change,"lot 1, Day 3, AI method",3.6 fold
same,AI565105 (54886_at) expression fold change,"lot 1, Day 3, AI method",2.8 fold
same,AI659927 (54033_at) expression fold change,"lot 1, Day 3, AI method",4.2 fold
same,AI718385 (53061_at) expression fold change,"lot 1, Day 3, AI method",4.6 fold
same,AI809925 (53010_at) expression fold change,"lot 1, Day 3, AI method",3.1 fold
same,AI989346 (52327_s_at) expression fold change,"lot 1, Day 3, AI method",2.9 fold
same,"AKAP2 (35985_at) expression, fold change upon IL-13 stimulation","lot 1, Day 3, AI method",6 fold
same,AKAP2 (48035_at) expression fold change,"lot 1, Day 3, AI method",6.6 fold
same,"ALOX15 (34636_at) expression, fold change upon IL-13 stimulation","lot 1, Day 3, AI method",47.8 fold
same,BAL (52167_at) expression fold change,"lot 1, Day 3, AI method",3.5 fold
same,BRCA1 (626_s_at) expression fold change,"lot 1, Day 3, AI method",9.1 fold
same,"BST2 (39061_at) expression, fold change upon IL-13 stimulation","lot 1, Day 3, AI method",9.9 fold
same,"C1S (40496_at) expression, fold change upon IL-13 stimulation","lot 1, Day 3, AI method",3.3 fold
same,C21orf11 (58957_at) expression fold change,"lot 1, Day 3, AI method",6.6 fold
same,CCND3 (1794_at) expression fold change upon IL-13 stimulation,"lot 1, Day 3, AI method",2.2 fold
same,CCND3 (1795_g_at) expression fold change upon IL-13 stimulation,"lot 1, Day 3, AI method",2.2 fold
same,CD47 (37890_at) expression fold change,"lot 1, Day 3, AI method",2.1 fold
same,CDH6 (1620_at) expression fold change upon IL-13 stimulation,"lot 1, Day 3, AI method",4.3 fold
same,CDH6 (57421_at) expression fold change,"lot 1, Day 3, AI method",3.5 fold
same,CDH26 (46916_at) expression fold change,"lot 1, Day 3, AI method",8.9 fold
same,"CH25H (32363_at) expression, fold change upon IL-13 stimulation","lot 1, Day 3, AI method",9.9 fold
same,CLDN1 (46260_at) expression fold change,"lot 1, Day 3, AI method",2.4 fold
same,"CLDN4 (35276_at) expression, fold change upon IL-13 stimulation","lot 1, Day 3, AI method",2.3 fold
same,"CTSC (133_at) expression, fold change upon IL-13 stimulation","lot 1, Day 3, AI method",3.5 fold
same,CXCL16 (44095_at) expression fold change,"lot 1, Day 3, AI method",2.5 fold
